Data from publication PMC11561622, “Evaluating Antimalarial Proteasome Inhibitors for Efficacy in Babesia Blood Stage Cultures” (ACS Omega, 2024).

Columns and labels:
B. divergens = B. divergens growth in bovine erythrocyte cultures (flow cytometry parasitemia); type: cell-based, Babesia divergens; conditions: for EC50: bovine erythrocyte cultures, 48 h, dose-response
Protocol: Blood stage cultures of B. divergens (strain 2210A G2) were maintained in erythrocytes from defibrinated bovine blood (BioTrading Benelux B.V.). Parasites were multiplied in in vitro erythrocyte cultures containing RPMI 1640 medium (Lonza, cat. no. BE12-115F) supplemented with 50 μg/mL gentamicin (Lonza), 0.25 μg/mL amphotericin B (Sigma-Aldrich), and 20% (v/v) heat-inactivated fetal calf serum (Lonza, inactivation at 56 °C for 30 min before use). Cells were cultured at 37 °C in a 5% CO2 environment. B. microti (Franca) (ATTC PRA-99) was maintained by continuous intraperitoneal passages in BALB/c female mice (Charles River Laboratories). All laboratory animals were treated in accordance with the Animal Protection Law of the Czech Republic No. 246/1992 Sb., ethics approval no. 25/2018. The study was approved by the Institute of Parasitology, Biology Centre of the Czech Academy of Sciences and the Central Committee for the Animal Welfare, Czech Republic (protocol no. 1/2015).
To evaluate the effect of inhibitors on B. divergens replication, cultures (5% hematocrit) containing 2% parasitemia were cultivated in media. Single concentration screens were first performed using 600 nM of compound and then dose–response assays (5400 to 2.34 nM) were subsequently performed for compounds of interest. Assays were performed twice in triplicate wells in a 96-well tissue culture plate format (TPP, Switzerland) and media containing inhibitors were replaced at 12 h intervals for a total of 48 h. DMSO diluted in medium (0.1%) served as a vehicle control. The parasitemia of intraerythrocytic B. divergens was determined using flow cytometry following the staining of nucleic acids as described previously.[31] Briefly, infected red blood cells were fixed in a solution of 4% paraformaldehyde and 0.025% glutaraldehyde in PBS for 30 min at room temperature (RT). […] Parasitemia was analyzed using a FACS CantoII flow cytometer and Diva software provided by BD Biosciences. The EC50 of compounds in the dose–response inhibition was determined in GraphPad Prism 10 using nonlinear regression.

[1] = system: endogenous polyubiquitinated proteins in B. divergens; test: Western blot of polyubiquitinated proteins in treated B. divergens cultures; type: cell-based, Babesia divergens; conditions: 200 nM, 24 h, anti-Ubiquitin K48 western blot, vs 0.1% DMSO
Protocol: To assess the on-target effect of proteasome inhibition, protein lysates of B. divergens isolated from bovine erythrocyte cultures were evaluated for the accumulation of polyubiquitinated proteins. The B. divergens cultures underwent two 12 h treatments (totaling 24 h) with 200 nM of the inhibitor in culture medium. Parasites were released from RBCs and protein lysates were prepared as described above. The resulting samples were then centrifuged at 15,000g for 15 min at 4 °C and protein concentrations of the resulting supernatant were determined using Bradford assay.[29] Samples were prepared for SDS-PAGE in reducing Laemmli buffer supplemented with β-mercaptoethanol. Ten micrograms of protein was applied per lane and proteins were separated on gradient (4–15%) Criterion TGX Stain-Free Precast gels (BioRad) in Tris-Glycine-SDS running buffer (25 mM Tris, 192 mM glycine, and 0.1% (w/vol) SDS, pH 8.3) and visualized using TGX stain-free chemistry (BioRad). […] After washing (3 × 10 min) in PBS-T, signals were detected using Clarity Max Western ECL substrate (BioRad), visualized using a ChemiDoc MP imager, analyzed, and adjusted using the ImageLab freeware (BioRad).

CCCCCC(=O)N[C@H](C(=O)N[C@@H](CCS(C)(=O)=O)C(=O)N[C@@H](CC(C)C)C(=O)[C@@]1(C)CO1)C(C)C [carmaphycin B]
Selectivity index (B. divergens over HepG2 cells) (B. divergens; HepG2 EC50 / B. divergens EC50): 0.21 | EC50 (B. divergens): 59.5 ± 12.8 nM | EC50 (B. divergens; listed as CPB): 59.5 ± 12.8 nM | accumulation of endogenous polyubiquitinated proteins [1]: marked accumulation
